Structures can show the parent of a compound that is named as a salt.
How the values were obtained:
[1] = Salt preparation: isolation of solid salts of the pyrrolidine compound; assay type: physicochemical; conditions: acid plus free base in IPA, filtration, MTBE
[2] = Chemical stability by HPLC; assay type: physicochemical
Experimental: In addition, the solutions before spraying and the spray dried product were analyzed for purity by HPLC using the following method. A Waters Symmetry C18 (3.0×150 mm, 3.5 um) column was used. […] Column temperature was 60° C., and the detection wavelength was 210 nm. The injection volume was 15 μL; flow rate was 1.0 mL/minute for a run time of 70 minutes. The gradient was as follows: Chemical Stability. Chemical stability was determined using HPLC. […] The chemical stability of the tartrate salt and the free base was also determined after one and three months at 25° C., 40° C. and 60° C.

[3] = Chemical stability by HPLC; assay type: physicochemical; conditions: 45% RH for two months
[4] = Physical stability in humidity chambers
From the text: Physical Stability in Humidity Chambers. […] Samples were weighed hourly at first, and then on daily intervals.

[5] = 12 Month Stability Study; assay type: physicochemical; design: Water: unit not given beside the values; conditions: for decomposition on storage: 25° C.
[6] = 3 months at 40° C., listed as Tartrate
[7] = 12 months, T = 25° C., RH = 60%

## O=C(O)[C@@H](O)[C@H](O)C(=O)O [D-tartrate]
[1]; listed as D-Tartaric Acid
  Comments (outcome of salt preparation): Good filterable solid

## O=C(CN[C@@H]1CCNC1)N1CCC[C@H]1B(O)O [Free Base, (2R)-1-{7-[(9R)-pyrrolidin-9-ylamino]-acetyl}-pyrrolidine-2-boronic acid]
[2]; 1 month at 40° C.
  Assay (%): 97%
  Total Impurities (%): 15.4%
[2]; 3 months at 40° C.
  Assay (%): 50%
  Total Impurities (%): 29.6%
[2]; Initial
  Assay (%): 96%
  Total Impurities (%): 7.6%

## O=C(CN[C@@H]1CCNC1)N1CCC[C@H]1B(O)O [L-tartrate salt, (2R)-1-{7-[(9R)-pyrrolidin-9-ylamino]-acetyl}-pyrrolidine-2-boronic acid]
[3]
  change in the purity (HPLC): Little or no change
other
  solubility in water and alcohols: > 2000 mg/mL
[4]
  hygroscopicity: moderately hygroscopic
[4]; 63% relative humidity and room temperature for two months
  processability of the solid: remained a processable solid
[4]; ambient conditions
  physical behaviour of the solid at ambient conditions: remains a processable solid
[4]; open container, room temperature, 45% RH, two months
  flow properties: maintained good flow properties
[4]; several days at ambient temperature, relative humidity of 75%
  processability of the solid: remained a processable solid
[2]; 1 month at 60° C.
  Assay (%): 100%
  Total Impurities (%): 5.8%
[2]; 3 months at 25° C.
  Assay (%): 99%
  Total Impurities (%): 5.7%
[2]; [6]
  Assay (%): 97%
  Total Impurities (%): 5.9%
[2]; 3 months at 60° C.
  Assay (%): 92%
  Total Impurities (%): 7.4%
[2]; Initial, listed as Tartrate
  Assay (%): 99%
  Total Impurities (%): 6.5%
[5]; 1 month, T = 5° C., RH = N/A
  Assay (HPLC): 105.7
  Purity (HPLC): 98.1
  Water: 9.8
[5]; 1 month, T = 25° C., RH = 60%
  Assay (HPLC): 105.7
  Purity (HPLC): 98.1
  Water: 9.9
[5]; 1 month, T = 40° C., RH = 75%
  Assay (HPLC): 106.0
  Purity (HPLC): 98.2
  Water: 10.0
[5]; 3 months, T = 5° C., RH = N/A
  Assay (HPLC): 106.2
  Purity (HPLC): 98.0
  Water: 9.6
[5]; 3 months, T = 25° C., RH = 60%
  Assay (HPLC): 106.7
  Purity (HPLC): 98.1
  Water: 9.4
[5]; 3 months, T = 40° C., RH = 75%
  Assay (HPLC): 105.3
  Purity (HPLC): 97.9
  Water: 9.2
[5]; 6 months at 75% RH
  decomposition on storage: no detectable decomposition
[5]; 6 months, T = 5° C., RH = N/A
  Assay (HPLC): 104.6
  Purity (HPLC): 97.9
  Water: 8.9
[5]; 6 months, T = 25° C., RH = 60%
  Assay (HPLC): 105.9
  Purity (HPLC): 97.9
  Water: 9.3
[5]; 6 months, T = 40° C., RH = 75%
  Assay (HPLC): 105.6
  Purity (HPLC): 97.7
  Water: 9.5
[5]; 9 months, T = 5° C., RH = N/A
  Assay (HPLC): 106.7
  Purity (HPLC): 97.8
  Water: 9.1
[5]; 9 months, T = 25° C., RH = 60%
  Assay (HPLC): 107.3
  Purity (HPLC): 97.8
  Water: 9.0
[5]; 12 months at 60% RH
  decomposition on storage: no detectable decomposition
[5]; 12 months, T = 5° C., RH = N/A
  Assay (HPLC): 107.8
  Purity (HPLC): 98.0
  Water: 9.3
[5]; [7]
  Assay (HPLC): 107.7
  Purity (HPLC): 97.9
  Water: 9.3
[5]; any of the conditions tested, 12 month study
  change in chemical purity: substantially no change
[5]; time = 0
  Assay (HPLC): 105.1
  Purity (HPLC): 98.3
  Water: 10.4

## citrate
[1]
  Comments (outcome of salt preparation): Good filterable solid
[4]; 63% RH
  stability at 63% RH: stable
[4]; 75% RH
  stability when submitted to 75% relative humidity: not stable

From patent publication US8299271B2, “Solid tartrate salts of DPP-IV inhibitors” (priority 2006, dated 2012)
